Laboratory results reported in ChEMBL document CHEMBL1201862, “PubChem BioAssay data set” (2004).
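Results reflect a 48-hour exposure of cells in 96-well plates to compound at five concentrations. GI50 marks 50% less growth.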 Active and inactive are the calls of the source. Rule as the data show it: active = GI50 up to about 1.1 µM and inactive = higher.

What was measured:
Assay in all cases: DTP human tumour cell line panel, 48 h
U-251 = test system: U-251
SF-539 = test system: SF-539
UACC-62 = test system: UACC-62
SF-268 = test system: SF-268
RXF 393 = test system: RXF 393
NCI-H23 = test system: NCI-H23
DMS-273 = test system: DMS-273
SK-OV-3 = test system: SK-OV-3
SF-295 = test system: SF-295
LXFL 529 = test system: LXFL 529
A549 = test system: A549
HCC 2998 = test system: HCC 2998
A498 = test system: A498
COLO 205 = test system: COLO 205
Malme-3M = test system: Malme-3M
OVCAR-5 = test system: OVCAR-5
SK-MEL-28 = test system: SK-MEL-28
HCT-116 = test system: HCT-116
NCI-H226 = test system: NCI-H226
DMS-114 = test system: DMS-114
SK-MEL-2 = test system: SK-MEL-2
NCI-H522 = test system: NCI-H522
LOX IMVI = test system: LOX IMVI
SNB-78 = test system: SNB-78
786-0 = test system: 786-0
KM12 = test system: KM12
OVCAR-8 = test system: OVCAR-8
OVCAR-3 = test system: OVCAR-3
SK-MEL-5 = test system: SK-MEL-5
CAKI-1 = test system: CAKI-1
SNB-75 = test system: SNB-75
CCRF-CEM = test system: CCRF-CEM
OVCAR-4 = test system: OVCAR-4
ACHN = test system: ACHN
HOP-62 = test system: HOP-62
DLD-1 = test system: DLD-1
HCT-15 = test system: HCT-15
M14 = test system: M14
SR = test system: SR
K562 = test system: K562
SN12C = test system: SN12C
XF498 = test system: XF498
UO-31 = test system: UO-31
HT-29 = test system: HT-29
HOP-18 = test system: HOP-18
SW-620 = test system: SW-620
HOP-92 = test system: HOP-92
NCI-H460 = test system: NCI-H460
EKVX = test system: EKVX
IGROV-1 = test system: IGROV-1
MOLT-4 = test system: MOLT-4
TK-10 = test system: TK-10
UACC-257 = test system: UACC-257
KM-20L2 = test system: KM-20L2
RPMI-8226 = test system: RPMI-8226
HL-60 = test system: HL-60
M19-MEL = test system: M19-MEL
SNB-19 = test system: SNB-19

In the case of `COc1cc(Nc2nc3cc(C(F)(F)F)ccc3nc2C)cc(OC)c1OC`, the GI50 (U-251) is reported as 9.95 µM (inactive), the GI50 (SF-539) is reported as 12.2 µM (inactive) and the GI50 (UACC-62) is reported as 3.94 µM (inactive). The GI50 (SF-268) was 16 µM (inactive), the GI50 (RXF 393) was 5.46 µM (inactive) and the GI50 (NCI-H23) was 10.7 µM (inactive). For the same molecule, the GI50 (DMS-273) was 5.2 µM (inactive), the GI50 (SK-OV-3) was 14.4 µM (inactive) and the GI50 (SF-295) was 1.97 µM (inactive). For the same molecule, the GI50 (LXFL 529) was 9.91 µM (inactive), the GI50 (A549) was > 10 µM (inactive) and the GI50 (HCC 2998) was 3.61 µM (inactive). The GI50 (A498) was 3.81 µM (inactive), the GI50 (COLO 205) was 12.1 µM (inactive) and the GI50 (Malme-3M) was 13.6 µM (inactive). For the same molecule, the GI50 (OVCAR-5) was 13.3 µM (inactive), the GI50 (SK-MEL-28) was 12.5 µM (inactive) and the GI50 (HCT-116) was 8.81 µM (inactive). For the same molecule, the GI50 (NCI-H226) was 5.14 µM (inactive), the GI50 (DMS-114) was 11.2 µM (inactive) and the GI50 (SK-MEL-2) was 11 µM (inactive). The GI50 (NCI-H522) was 12.3 µM (inactive), the GI50 (LOX IMVI) was 3.13 µM (inactive) and the GI50 (SNB-78) was 11.1 µM (inactive). The GI50 (786-0) was 12.2 µM (inactive), the GI50 (KM12) was 6.32 µM (inactive) and the GI50 (OVCAR-8) was 11 µM (inactive). For the same molecule, the GI50 (OVCAR-3) was 16.1 µM (inactive), the GI50 (SK-MEL-5) was 9.79 µM (inactive) and the GI50 (CAKI-1) was 7.11 µM (inactive). For the same molecule, the GI50 (SNB-75) was 15.5 µM (inactive), the GI50 (CCRF-CEM) was 5.74 µM (inactive) and the GI50 (OVCAR-4) was 16.3 µM (inactive). For the same molecule, the GI50 (ACHN) was 8.11 µM (inactive), the GI50 (HOP-62) was 16.7 µM (inactive) and the GI50 (DLD-1) was 7.1 µM (inactive). For the same molecule, the GI50 (HCT-15) was 3.32 µM, the GI50 (M14) was 7.6 µM (inactive) and the GI50 (SR) was 6.15 µM (inactive). The GI50 (K562) was 5.52 µM (inactive), the GI50 (SN12C) was 10.4 µM (inactive) and the GI50 (XF498) was 2.3 µM (inactive). For the same molecule, the GI50 (UO-31) was 4.22 µM (inactive), the GI50 (HT-29) was 3 µM (inactive) and the GI50 (HOP-18) was < 0.01 µM (active). For the same molecule, the GI50 (SW-620) was 13.3 µM (inactive), the GI50 (HOP-92) was 0.246 µM (active) and the GI50 (NCI-H460) was 4.11 µM (inactive). For the same molecule, the GI50 (EKVX) was 16.6 µM (inactive), the GI50 (IGROV-1) was 13.6 µM (inactive) and the GI50 (MOLT-4) was 6.95 µM (inactive). For the same molecule, the GI50 (TK-10) was 10.7 µM (inactive) and the GI50 (UACC-257) was 6.37 µM (inactive).

With `O=C(O)Cc1ccccc1CCc1ccccc1Cl` the GI50 (U-251) was > 100 µM (inactive), the GI50 (SF-539) was > 100 µM (inactive) and the GI50 (SF-268) was > 100 µM (inactive). The GI50 (RXF 393) was > 100 µM (inactive), the GI50 (NCI-H23) was > 100 µM (inactive) and the GI50 (KM-20L2) was > 100 µM (inactive). The GI50 (DMS-273) was > 100 µM (inactive), the GI50 (RPMI-8226) was > 100 µM (inactive) and the GI50 (SK-OV-3) was > 100 µM (inactive). The GI50 (SF-295) was > 100 µM (inactive), the GI50 (LXFL 529) was > 100 µM (inactive) and the GI50 (A549) was > 100 µM (inactive). The GI50 (HCC 2998) was > 100 µM (inactive), the GI50 (A498) was > 100 µM (inactive) and the GI50 (COLO 205) was > 100 µM (inactive). The GI50 (Malme-3M) was > 100 µM (inactive), the GI50 (OVCAR-5) was > 100 µM (inactive) and the GI50 (SK-MEL-28) was > 100 µM (inactive). For the same molecule, the GI50 (HCT-116) was > 100 µM (inactive), the GI50 (NCI-H226) was 68.1 µM (inactive) and the GI50 (SK-MEL-2) was 30.8 µM (inactive). For the same molecule, the GI50 (NCI-H522) was > 100 µM (inactive), the GI50 (LOX IMVI) was > 100 µM (inactive) and the GI50 (HL-60) was > 100 µM (inactive). For the same molecule, the GI50 (SNB-78) was > 100 µM (inactive), the GI50 (786-0) was > 100 µM (inactive) and the GI50 (KM12) was > 100 µM (inactive). The GI50 (OVCAR-8) was > 100 µM (inactive), the GI50 (OVCAR-3) was 53.2 µM (inactive) and the GI50 (M19-MEL) was 95.5 µM (inactive). For the same molecule, the GI50 (SK-MEL-5) was > 100 µM (inactive), the GI50 (CAKI-1) was > 100 µM (inactive) and the GI50 (SNB-75) was 93.8 µM (inactive). For the same molecule, the GI50 (CCRF-CEM) was > 100 µM (inactive), the GI50 (OVCAR-4) was > 100 µM (inactive) and the GI50 (DLD-1) was > 100 µM (inactive). For the same molecule, the GI50 (HCT-15) was over 100 µM, the GI50 (M14) was > 100 µM (inactive) and the GI50 (SR) was > 100 µM (inactive). For the same molecule, the GI50 (K562) was > 100 µM (inactive), the GI50 (SN12C) was > 100 µM (inactive) and the GI50 (XF498) was > 100 µM (inactive). For the same molecule, the GI50 (SNB-19) was > 100 µM (inactive), the GI50 (UO-31) was > 100 µM (inactive) and the GI50 (HT-29) was > 100 µM (inactive). The GI50 (HOP-18) was 50.1 µM (inactive), the GI50 (SW-620) was > 100 µM (inactive) and the GI50 (HOP-92) was > 100 µM (inactive). The GI50 (NCI-H460) was > 100 µM (inactive), the GI50 (EKVX) was 96.4 µM (inactive) and the GI50 (IGROV-1) was > 100 µM (inactive). The GI50 (MOLT-4) was > 100 µM (inactive), the GI50 (TK-10) was > 100 µM (inactive) and the GI50 (UACC-257) was > 100 µM (inactive).
